Results: patent US12351580B2, “NLRP3 modulators” (Innate Tumor Immunity, Inc., priority 2017, dated 2025)
pEC50: −log10 of the molar value.

How the values were obtained:
TLR7 = biological target: T1, TLR7 (Homo sapiens, UniProt Q9NYK1); assay: In vitro human TLR7 binding reporter assay (HEK-Blue, NF-kB/AP1-inducible SEAP); type: cell-based; settings: activity range symbols
T1 construct: host or cells: HEK-Blue cells (human HEK) co-expressing TLR7 and an NF-kB/AP1-inducible SEAP reporter
T1 sequence (Q9NYK1 27-1049): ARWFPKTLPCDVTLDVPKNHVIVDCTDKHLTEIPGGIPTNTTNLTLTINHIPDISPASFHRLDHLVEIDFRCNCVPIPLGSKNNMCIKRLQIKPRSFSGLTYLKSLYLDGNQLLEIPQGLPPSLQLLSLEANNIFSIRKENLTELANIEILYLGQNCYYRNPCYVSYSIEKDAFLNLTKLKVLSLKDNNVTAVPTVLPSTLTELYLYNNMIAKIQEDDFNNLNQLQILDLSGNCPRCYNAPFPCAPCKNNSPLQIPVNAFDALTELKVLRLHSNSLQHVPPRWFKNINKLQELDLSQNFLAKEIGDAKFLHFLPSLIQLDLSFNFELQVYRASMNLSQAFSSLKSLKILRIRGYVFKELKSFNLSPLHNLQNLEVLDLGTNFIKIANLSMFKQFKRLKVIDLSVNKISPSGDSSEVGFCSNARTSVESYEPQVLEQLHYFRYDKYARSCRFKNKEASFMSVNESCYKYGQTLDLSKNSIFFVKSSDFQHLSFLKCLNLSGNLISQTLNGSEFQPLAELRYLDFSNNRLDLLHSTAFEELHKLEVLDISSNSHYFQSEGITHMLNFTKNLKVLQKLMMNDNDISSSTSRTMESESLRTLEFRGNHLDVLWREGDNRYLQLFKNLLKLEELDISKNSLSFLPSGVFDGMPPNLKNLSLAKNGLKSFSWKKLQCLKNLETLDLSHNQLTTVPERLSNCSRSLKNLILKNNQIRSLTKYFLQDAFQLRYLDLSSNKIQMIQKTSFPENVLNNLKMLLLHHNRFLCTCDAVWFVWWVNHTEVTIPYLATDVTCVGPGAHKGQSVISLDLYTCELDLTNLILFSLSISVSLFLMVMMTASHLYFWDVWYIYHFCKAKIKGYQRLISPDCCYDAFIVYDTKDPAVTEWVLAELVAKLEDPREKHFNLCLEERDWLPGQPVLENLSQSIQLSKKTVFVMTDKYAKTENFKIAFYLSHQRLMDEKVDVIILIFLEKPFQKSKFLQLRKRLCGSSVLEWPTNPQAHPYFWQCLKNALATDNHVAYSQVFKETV
How it was run: (§1)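 Reporter cells are plated at 15,000 per well and rested 24 h. Next day, test compounds or DMSO are dispensed, followed by 18 h incubation at 37 °C, 5% CO2.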

TLR8 = biological target: T2, TLR8 (Homo sapiens, UniProt Q9NR97); assay: In vitro human TLR8 binding reporter assay (HEK-Blue, NF-kB/AP1-inducible SEAP); type: cell-based; settings: activity range symbols
T2 construct: host or cells: HEK-Blue cells (human HEK) co-expressing TLR8 and an NF-kB/AP1-inducible SEAP reporter
T2 sequence (Q9NR97 27-1041): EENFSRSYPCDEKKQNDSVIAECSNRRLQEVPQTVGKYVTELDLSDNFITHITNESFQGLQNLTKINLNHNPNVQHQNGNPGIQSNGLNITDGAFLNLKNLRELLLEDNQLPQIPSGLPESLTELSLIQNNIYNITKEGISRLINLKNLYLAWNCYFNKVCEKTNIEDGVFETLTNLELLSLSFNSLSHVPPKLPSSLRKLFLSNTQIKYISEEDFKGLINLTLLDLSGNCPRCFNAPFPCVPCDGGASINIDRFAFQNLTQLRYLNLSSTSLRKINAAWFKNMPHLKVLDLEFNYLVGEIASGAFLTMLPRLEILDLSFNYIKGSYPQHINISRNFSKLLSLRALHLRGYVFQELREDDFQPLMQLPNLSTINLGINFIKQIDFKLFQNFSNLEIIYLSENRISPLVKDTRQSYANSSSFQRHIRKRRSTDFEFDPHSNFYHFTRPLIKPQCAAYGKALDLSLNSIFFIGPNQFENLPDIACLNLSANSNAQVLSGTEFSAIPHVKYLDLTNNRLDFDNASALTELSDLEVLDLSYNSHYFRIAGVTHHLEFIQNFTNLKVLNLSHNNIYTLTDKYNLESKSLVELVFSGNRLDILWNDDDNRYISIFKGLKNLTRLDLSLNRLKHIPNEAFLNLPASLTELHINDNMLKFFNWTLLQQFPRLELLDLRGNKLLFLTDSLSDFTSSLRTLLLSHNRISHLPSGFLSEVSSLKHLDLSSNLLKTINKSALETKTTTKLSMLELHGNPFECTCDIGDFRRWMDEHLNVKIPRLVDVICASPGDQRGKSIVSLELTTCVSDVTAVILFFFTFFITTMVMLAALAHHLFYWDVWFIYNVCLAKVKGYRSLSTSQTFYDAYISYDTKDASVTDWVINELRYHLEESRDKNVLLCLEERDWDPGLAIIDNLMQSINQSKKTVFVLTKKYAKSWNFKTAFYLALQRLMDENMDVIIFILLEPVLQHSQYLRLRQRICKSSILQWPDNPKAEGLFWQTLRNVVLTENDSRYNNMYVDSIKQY
How it was run: as §1

Structure (SMILES) | pEC50 (TLR7) | pEC50 (TLR8)
Nc1nc2cc(-c3cccc(Cl)c3)ccc2c2[nH]c(CN3CCCC3=O)nc12 [Compound 285, 1-[[4-amino-7-(3-chlorophenyl)-1H-imidazo[4,5-c]quinolin-2-yl]methyl]pyrrolidin-2-one] | < 4.00 | < 4.00
Cc1cccc(-c2ccc3c(c2)nc(N)c2nc(CN4CCCC4=O)[nH]c23)c1 [Compound 286, 1-[[4-amino-7-(3-methylphenyl)-1H-imidazo[4,5-c]quinolin-2-yl]methyl]pyrrolidin-2-one] | < 4.00 | < 4.00
COc1cccc(-c2ccc3c(c2)nc(N)c2nc(CN4CCCC4=O)[nH]c23)c1 [Compound 287, 1-[[4-amino-7-(3-methoxyphenyl)-1H-imidazo[4,5-c]quinolin-2-yl]methyl]pyrrolidin-2-one] | < 4.00 | < 4.00
N#Cc1cccc(-c2ccc3c(c2)nc(N)c2nc(CN4CCCC4=O)[nH]c23)c1 [Compound 288, 3-[4-amino-2-[(2-oxopyrrolidin-l-yl)methyl]-1H-imidazo[4,5-c]quinolin-7-yl]benzonitrile] | < 4.00 | < 4.00
Nc1nc2cc(-c3cccc(F)c3)ccc2c2[nH]c(CN3CCCC3=O)nc12 [Compound 289, 1-[[4-amino-7-(3-fluorophenyl)-1H-imidazo[4,5-c]quinolin-2-yl]methyl]pyrrolidin-2-one] | < 4.00 | < 4.00
Cc1ccc(-c2ccc3c(c2)nc(N)c2nc(CN4CCCC4=O)[nH]c23)cc1 [Compound 291, 1-[[4-amino-7-(4-methylphenyl)-1H-imidazo[4,5-c]quinolin-2-yl]methyl]pyrrolidin-2-one] | < 4.00 | < 4.00
Nc1nc2cc(Br)ccc2c2[nH]c(CN3CCCC3=O)nc12 [Compound 294, 1-[(4-amino-7-bromo-1H-imidazo[4,5-c]quinolin-2-yl)methyl]pyrrolidin-2-one] | 4.00 to 4.70 | < 4.00
Nc1nc2cc(-n3cccn3)ccc2c2[nH]c(CN3CCCC3=O)nc12 [Compound 295, 1-[(4-amino-7-pyrazol-1-yl-1H-imidazo[4,5-c]quinolin-2-yl)methyl]pyrrolidin-2-one] | < 4.00 | < 4.00

The next lines start with the values.

pEC50 (TLR7) | pEC50 (TLR8) | Structure (SMILES)
< 4.00 | < 4.00 | Cc1cnn(-c2ccc3c(c2)nc(N)c2nc(CN4CCCC4=O)[nH]c23)c1 [Compound 296, 1-[[4-amino-7-(4-methylpyrazol-1-yl)-1H-imidazo[4,5-c]quinolin-2-yl]methyl]pyrrolidin-2-one]
4.70 to 6.00 | < 4.00 | Nc1nc2cc(C3CCOCC3)ccc2c2[nH]c(CN3CCCC3=O)nc12 [Compound 298, 1-[[4-amino-7-(oxan-4-yl)-1H-imidazo[4,5-c]quinolin-2-yl]methyl]pyrrolidin-2-one]
< 4.00 | < 4.00 | Cc1ccn(-c2ccc3c(c2)nc(N)c2nc(CN4CCCC4=O)[nH]c23)n1 [Compound 301, 1-[[4-amino-7-(3-methylpyrazol-1-yl)-1H-imidazo[4,5-c]quinolin-2-yl]methyl]pyrrolidin-2-one]
< 4.00 | < 4.00 | Nc1nc2cc(C3CCCCC3)ccc2c2[nH]c(CN3CCCC3=O)nc12 [Compound 302, 1-[(4-amino-7-cyclohexyl-1H-imidazo[4,5-c]quinolin-2-yl)methyl]pyrrolidin-2-one]
4.00 to 4.70 | 4.00 to 4.70 | CC(c1nc2c(N)nc3cc(Br)ccc3c2[nH]1)N1CCCC1=O (centres unmarked) [Compound 303, 1-[1-(4-amino-7-bromo-1H-imidazo[4,5-c]quinolin-2-yl)ethyl]pyrrolidin-2-one]
